Assay results from patent US20150158914A1, “PEPTIDES, CONSTRUCTS AND USES THEREFOR” (priority 2010, published 2015).
“Also recorded” adds a separate entry of the source. Ends that are not written are not given here. * marks the point of attachment. FITC = O=C1OC2(c3ccc(O)cc3Oc3cc(O)ccc32)c2ccc(NC(=S)*)cc21

How the values were obtained:
Cos-1 kidney cell line = experiment: Peptide uptake by other cell lines; type: cell-based, green monkey
Experimental: (§1) The cells were then incubated overnight at 37° and 5% CO2, and then washed thrice with media without FCS. The X-protein peptide in 250 μl of appropriate media without FCS was added to the cells at a final concentration of 10 μM, and the slides incubated for 3 h at 37° C. and 5% CO2. The cells were washed with PBS, fixed with 4% formaldahyde in PBS for 30 min, and washed thrice with PBS. […] The slides were dried overnight in the dark, and examined by microscopy by using a Nikon E600 fluorescent microscope. Photos were taken using Nikon ACT-1 software. For further examination, slides were then examined by confocal microscopy using a Leica TCS-SP2 confocal microscope.
(§2) The X-protein cell-permeable peptide aa 16-22 was tested for its ability to be taken up by other mammalian cell lines including the human C32 melanoma, DU145 prostate carcinoma, TK1 T cell lymphoma, H441 lung carcinoma, Rin-m5f rat pancreatic islet tumor and Cos-1/7 green monkey kidney cell lines. TK1 cells are suspension cells whereas all other cell lines are adherent cells. Cells were incubated with the fluoresceinated X-protein cell-permeable peptide 16-22 for 3 h in medium appropriate for that cell line in the absence of FCS. The HepG2 cell line was used as a positive control. The X-protein peptide was able enter all adherent cell lines regardless of type or source of the cell (FIGS. 22 and 23).

[1] = test system: nonadherent cell line TK1; experiment: Peptide uptake by suspension cell line; type: cell-based; conditions: TK1 in suspension, 3 h; listed as X-protein cell-permeable peptide aa 16-22
Experimental: as §1, §2

[2] = test system: adherent monocytes and platelets; experiment: Peptide uptake by adherent buffy coat cells; type: cell-based, human; conditions: 3 h, cells adhered to 8-chamber slides
Experimental: To determine whether this was a general feature of nonadherent cells, the ability of the peptide to enter non-adherent human peripheral blood mononuclear cells was examined. A buffy coat containing monocytes, lymphocytes, and platelets was isolated from 10 ml of human blood and incubated in 8-chamber slides for 3 h with the cell-permeable peptide aa 16-22 in RPMI medium without FCS.

adherent TK1 T cells = experiment: Peptide uptake by attached TK1 cells; type: cell-based
Description: As above, the lymphocytic cell line TK1 in suspension was not able to take up the X-protein cell-permeable peptide aa 16-22. Once activated, circulating lymphocytes have the ability to adhere to the vascular endothelium, to attach to antigen presenting cells, and to attach to and move through the extracellular matrix. The fact that adherent monocytes took up the peptide raised the possibility that TK1 T cells attached to a surface might also be able to take up the X-protein cell permeable peptide aa 16-22. TK1 cells were adhered to MAdCAM-1-coated glass slides or left to bind directly to the surface of the glass slides. Cells attached to the slides were incubated with the X-protein cell-permeable peptide aa 16-22 for 3 h in RPMI without FCS. Virtually all TK1 cells attached via α4β7 to MAdCAM-1 took up the peptide, whereas only 50 to 60% of cells directly attached to the glass slide took up the peptide (FIG. 27).

X-protein = experiment: X-protein-mediated apoptosis of HepG2 transfectants (annexin-V staining); type: cell-based, hepatitis B virus; conditions: 10 μM peptide at 3 h, 3 and 24 h, or 3, 24 and 48 h, 51 h culture, listed as oligomerization domain peptide (aa 16-35)
Experimental: No PSG antibiotic was added to the medium as it can interfere with transfection efficiency. The medium was then removed and replaced with opti-MEM medium without 10% FCS. The amount of plasmid DNA used for transfection was […]. Firstly, 0.2 μg of either pcDNA3.1-HBX or pcDNA3-HBX Myc plasmid DNA was mixed with 25 μl of Opti-MEM medium, and then 0.2 μl of polymag transfection reagent was added (these solutions were prepared as a master mixes—the amounts mentioned are indicative for one well). The mixture was incubated for 20 min and then 25 μl added to the cells. The plate was placed onto a magnetic plate on a rotating platform for 20 min, and then the cells incubated for 3 h.
Cells were transfected with X-protein plasmid vectors as described above. After 3 h of transfection on the magnetic plate, the oligomerization domain peptide aa 16-35 or the control X-protein peptide aa 140-153 were added at a final concentration of 10 μM to the cells in MEM without 10% FCS, and cells incubated for either 3 h, 21 h, or 45 h. Peptides were added to MEM without FCS as serum can rapidly degrade small peptides. […]
A drop of mounting solution with DAPI was added to the cells, and covered with a cover slip. Slides were examined by fluorescence microscopy by using a Nikon E600 fluorescent microscope and photos were taken using Nikon ACT-1 software. […]

Substance: FITC-LCLRPVG ({FITC}-LCLRPVG) [Peptide 16-22]
- entry into cells (Cos-1 kidney cell line; COS-1, 3 h): taken up less efficiently
- uptake of the peptide, cells positive (Cos-1 kidney cell line; Cos-1, 3 h, no FCS): 60 to 70 % cells positive
- entry into cells [1]: completely unable to enter
- uptake by adherent monocytes and platelets ([2]; listed as X-protein cell-permeable peptide 16-22): able to enter adherent monocytes, and potentially adherent platelets
- uptake by adherent monocytes and platelets ([2]; listed as cell-permeable peptide aa 16-22): had taken up the peptide
- uptake by adherent TK1 T cells (adherent TK1 T cells; adhered to MAdCAM-1-coated glass slides or to the slides directly): took up
- TK1 cells that took up the peptide (adherent TK1 T cells; attached via α4β7 to MAdCAM-1, 3 h): Virtually all
- TK1 cells that took up the peptide (adherent TK1 T cells; directly attached to the glass slide, 3 h): 50 to 60 % of cells

Substance: FITC-Acp-LCLRPVGAESRGRPVSGPFG [Peptide 16-35]
- inhibition of full-length X-protein-mediated apoptosis (X-protein; pCDNA3-HBX Myc transfectants): inhibited full-length X-protein-mediated apoptosis of HepG2 cells; also recorded: significantly reduced X-protein-mediated apoptosis in a dose-dependent fashion
- inhibition of truncated X-protein-mediated apoptosis (X-protein; pCDNA3.1-HBX transfectants): inhibited truncated X-protein-mediated apoptosis of HepG2 cells; also recorded: significantly reduced X-protein-mediated apoptosis in a dose-dependent fashion
